Measured values reported in patent publication US20160331754A1, “THERAPIES FOR TREATING CANCERS” (GILEAD SCIENCES, INC., priority 2014, published 2016).
“And” between values parts separate entries of the source, which are not always exact repeats. Equal values may be shown once.

Key:
PI3Kδ = PI3Kδ (Homo sapiens, UniProt O00329); test: TR-FRET in vitro biochemical enzyme assay of class I PI3K isoforms
Description: The effects of Compound B on the activities of class I PI3K isoforms were measured using an in vitro biochemical enzyme assay at steady-state concentrations of adenosine triphosphate (ATP). Compound B is (S)-2-(1-((9H-purin-6-yl)amino)propyl)-5-fluoro-3-phenylquinazolin-4(3H)-one as described above.
A time resolved fluorescence resonance energy transfer (TR-FRET) assay was used to monitor the formation of […] (PIP3) molecule, as it competed with fluorescently labeled PIP3 for binding to the GRP-1 pleckstrin homology domain protein.

p-AKT Ser473 = test: Flow cytometry, TPO-activated AKT phosphorylation in CD34+ progenitor cells from MF patients; format: cell-based, human; conditions: for p-AKT (table title: percentage of Annexin-V positive cells): cells from Compound A-treated MF patients; for normalized percentage of TPO-activated AKT phosphorylation (p-AKT): TPO-treated vehicle=100
Description: PBMCs were isolated from whole blood of myelofibrosis (MF) patients who had not received treatments (i.e. naïve patients) or received ruxolitinib (i.e. rux-treated patients). The cells were treated with 0.02, 0.2, or 2.0 μM of Compound B or vehicle (0.1% DMSO in 0.1% FBS/RPMI) for 2 hours at 37° C. The cells were then fixed, permeabilized, and stained for FACS analysis. Antibodies specific to p-AKT Ser473 and pS6RP Ser235/236 were used to detect AKT phosphorylation (p-AKT) and S6RP phosphorylation (p-S6RP) in CD34^+/CD3^−/CD14^−/CD19/CD66^− (BD Biosciences) gated cells using flow cytometry. The percentage of basal (i.e. untreated with TPO) AKT and S6RP phosphorylation were normalized to vehicle control. A two-tailed paired t-test (GraphPad Prism) was used to calculate p-values. Values of p<0.05 were considered significant.
Also, PBMC cells from naïve or ruxolitinib treated patients were isolated and treated with Compound B and with TPO as described above. The percentage of TPO-activated AKT and S6RP phosphorylation were normalized to those of TPO-treated vehicle (“no TPO” values in Table 4). […] Also, the inhibition to PI3K signaling was dose-dependent to Compound B.
Similar studies were conducted with PI3K inhibitors Compounds C and D. PBMC from MF patients had received ruxolitinib (rux) and MF patient had received Compound A. The cells were treated with Compounds C or D at 0, 20.0, 200.0, 2000.0 nM for 2 hours at 37° C. Cells were treated with TPO for 10 minutes. The percentage of basal p-AKT and p-S6RP levels were normalized to vehicle control and those of TPO-treated were normalized to TPO-treated vehicle control. The PI3Kδ inhibitors Compound C is referred by the chemical names of (S)-2-(1-((9H-purin-6-yl)amino)ethyl)-6-fluoro-3-phenylquinazolin-4(3H)-one.

Ri-1 DLBCL cells = test: Cell death assay (Annexin V/7AAD) in Ri-1 DLBCL cells; format: cell-based; conditions: 3 days
Description: Further, whole blood (WB) autologous B-cell depletion and cell-death induction assays were conducted as described in Mossner et al., Blood 115:4393-402, 2010. For cell death assay: Ri-1 DLBCL cells were seeded at 15,000 cells/well in 96-well plates. Cells were preincubated with Compound B or DMSO for 1 hour before the addition of antibody. Plates were incubated at 37° C. in a humidified CO2 chamber for 3 days. Cells were washed once with PBS and treated with Accutase for 15 minutes before being stained with Guava Nexin® reagent and analyzed on the Guava EasyCyte flow cytometer (Merck Millipore).
After 3 days of incubation, cell death was assessed by Annexin V/7AAD staining.

WIL2-S = test: ADCC LDH release assay, purified NK cells against WIL2-S target cells; format: cell-based, human; conditions: for Percentage of ADCC, 5 nM Compound B / Percentage of ADCC, 50 nM Compound B / Percentage of ADCC, 500 nM Compound B: antibody concentration 10 μg/mL; for Percentage of maximum ADCC, obinutuzumab: obinutuzumab 10 μg/mL; for Percentage of maximum ADCC, rituximab: rituximab 10 μg/mL
[1] = Compound B 0.98 nM, FcγRIIIa 158F/F
[2] = Compound B 0.98 nM, FcγRIIIa 158F/V
[3] = Compound B 0.98 nM, FcγRIIIa 158V/V
[4] = Compound B 1.95 nM, FcγRIIIa 158F/F
[5] = Compound B 1.95 nM, FcγRIIIa 158F/V
[6] = Compound B 1.95 nM, FcγRIIIa 158V/V
[7] = Compound B 3.91 nM, FcγRIIIa 158F/F
[8] = Compound B 3.91 nM, FcγRIIIa 158F/V
[9] = Compound B 3.91 nM, FcγRIIIa 158V/V

PI3Kδ, sequence (O00329 whole entry, canonical isoform): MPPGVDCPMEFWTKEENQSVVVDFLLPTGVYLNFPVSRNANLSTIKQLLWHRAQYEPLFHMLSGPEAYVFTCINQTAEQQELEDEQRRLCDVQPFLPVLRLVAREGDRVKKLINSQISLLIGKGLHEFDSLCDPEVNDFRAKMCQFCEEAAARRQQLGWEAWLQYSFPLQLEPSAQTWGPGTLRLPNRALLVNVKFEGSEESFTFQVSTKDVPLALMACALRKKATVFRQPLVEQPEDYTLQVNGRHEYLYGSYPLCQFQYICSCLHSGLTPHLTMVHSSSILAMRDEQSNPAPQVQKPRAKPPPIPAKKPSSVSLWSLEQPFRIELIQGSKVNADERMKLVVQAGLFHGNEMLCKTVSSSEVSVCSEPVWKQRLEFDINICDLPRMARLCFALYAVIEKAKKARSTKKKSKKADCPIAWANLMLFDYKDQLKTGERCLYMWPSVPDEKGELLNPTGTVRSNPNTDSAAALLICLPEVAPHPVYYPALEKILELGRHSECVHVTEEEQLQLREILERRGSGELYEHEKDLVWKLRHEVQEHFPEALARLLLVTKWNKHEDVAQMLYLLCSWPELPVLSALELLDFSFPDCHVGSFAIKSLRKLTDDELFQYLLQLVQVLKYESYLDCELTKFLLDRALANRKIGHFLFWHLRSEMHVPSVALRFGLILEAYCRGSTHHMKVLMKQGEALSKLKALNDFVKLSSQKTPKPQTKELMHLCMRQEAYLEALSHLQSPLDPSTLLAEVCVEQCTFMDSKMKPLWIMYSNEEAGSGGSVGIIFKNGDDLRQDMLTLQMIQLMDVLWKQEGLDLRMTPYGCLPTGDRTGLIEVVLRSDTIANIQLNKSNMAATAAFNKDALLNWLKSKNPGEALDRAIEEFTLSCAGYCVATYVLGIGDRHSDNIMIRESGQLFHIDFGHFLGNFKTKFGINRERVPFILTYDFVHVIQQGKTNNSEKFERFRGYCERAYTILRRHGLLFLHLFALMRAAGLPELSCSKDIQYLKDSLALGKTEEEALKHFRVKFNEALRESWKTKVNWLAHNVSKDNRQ
PI3Kδ, sequence (P27986 whole entry partner, canonical isoform): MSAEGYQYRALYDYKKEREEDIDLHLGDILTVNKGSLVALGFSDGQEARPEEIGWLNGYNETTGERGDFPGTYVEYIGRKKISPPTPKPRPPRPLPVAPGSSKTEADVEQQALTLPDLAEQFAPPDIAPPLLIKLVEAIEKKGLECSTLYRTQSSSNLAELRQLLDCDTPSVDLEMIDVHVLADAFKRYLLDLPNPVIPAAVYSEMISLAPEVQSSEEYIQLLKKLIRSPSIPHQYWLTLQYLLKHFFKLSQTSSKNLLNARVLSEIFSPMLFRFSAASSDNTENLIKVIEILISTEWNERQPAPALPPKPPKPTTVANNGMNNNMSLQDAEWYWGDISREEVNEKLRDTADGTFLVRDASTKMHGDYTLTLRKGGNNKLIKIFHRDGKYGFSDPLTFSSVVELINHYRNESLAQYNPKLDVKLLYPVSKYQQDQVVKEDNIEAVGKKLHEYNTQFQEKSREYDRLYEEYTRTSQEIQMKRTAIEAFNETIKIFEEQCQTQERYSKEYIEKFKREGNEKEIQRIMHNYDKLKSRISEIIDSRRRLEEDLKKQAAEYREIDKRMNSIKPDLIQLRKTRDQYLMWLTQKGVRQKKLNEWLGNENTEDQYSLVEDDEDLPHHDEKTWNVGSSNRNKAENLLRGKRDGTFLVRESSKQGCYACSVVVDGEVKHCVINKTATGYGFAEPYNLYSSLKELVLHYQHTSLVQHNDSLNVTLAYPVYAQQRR

Compound: CC[C@H](Nc1ncnc2[nH]cnc12)c1nc2cccc(F)c2c(=O)n1-c1ccccc1 [Compound B, (S)-2-(1-((9H-purin-6-yl)amino)propyl)-5-fluoro-3-phenylquinazolin-4(3H)-one]
- selectivity among PI3K isoforms (PI3Kδ): selective inhibitor to PI3Kδ
- inhibition to PI3Kδ compared to PI3Kα (PI3Kδ; steady-state ATP): 450 fold
- inhibition to PI3Kδ compared to PI3Kβ (PI3Kδ; steady-state ATP): 210 fold
- inhibition to PI3Kδ compared to PI3Kγ (PI3Kδ; steady-state ATP): 110 fold
- p-AKT (table title: percentage of Annexin-V positive cells) (p-AKT Ser473; 0.02 μM, column 0 = 100): 56% and 74% and 51%
- normalized percentage of TPO-activated AKT phosphorylation (p-AKT) (p-AKT Ser473; 0.02 μM, naïve MF patients, one line per patient): 43% and 60% and 58%
- normalized percentage of TPO-activated AKT phosphorylation (p-AKT) (p-AKT Ser473; 0.02 μM, rux-treated MF patients): 59% and 60% and 78% and 55% and 57%
- p-AKT (table title: percentage of Annexin-V positive cells) (p-AKT Ser473; 0.2 μM): 49% and 71% and 51%
- normalized percentage of TPO-activated AKT phosphorylation (p-AKT) (p-AKT Ser473; 0.2 μM, naïve MF patients): 30% and 32% and 41%
- normalized percentage of TPO-activated AKT phosphorylation (p-AKT) (p-AKT Ser473; 0.2 μM, rux-treated MF patients): 39% and 52% and 55% and 57% and 36% and 33%
- normalized percentage of TPO-activated AKT phosphorylation (p-AKT) (p-AKT Ser473; 2.0 μM, naïve MF patients): 28% and 32% and 27%
- Percentage of total Annexin V+ cells (Ri-1 DLBCL cells; 100 nM Compound B alone): 28% and 27%
- Percentage of total Annexin V+ cells (Ri-1 DLBCL cells; 300 nM Compound B alone): 31% and 33%
- Percentage of total Annexin V+ cells (Ri-1 DLBCL cells; 600 nM Compound B alone): 35% and 37%
- Percentage of ADCC, 5 nM Compound B (WIL2-S; E:T 3:1): 58% and 56% and 53% and 49% and 46% and 44% and 39%
- Percentage of ADCC, 5 nM Compound B (WIL2-S; E:T 10:1): 72% and 75% and 73% and 79% and 74%
- Percentage of ADCC, 5 nM Compound B (WIL2-S; E:T 30:1): 81% and 82% and 79% and 76% and 80% and 77% and 85% and 84%
- Percentage of ADCC, 50 nM Compound B (WIL2-S; E:T 3:1): 54% and 58% and 50% and 39% and 37% and 44% and 42%
- Percentage of ADCC, 50 nM Compound B (WIL2-S; E:T 10:1): 72% and 74% and 69% and 77% and 76% and 73%
- Percentage of ADCC, 50 nM Compound B (WIL2-S; E:T 30:1): 76% and 81% and 80% and 79% and 75% and 85% and 84%
- Percentage of ADCC, 500 nM Compound B (WIL2-S; E:T 3:1): 50% and 53% and 36% and 34% and 39% and 35% and 38%
- Percentage of ADCC, 500 nM Compound B (WIL2-S; E:T 10:1): 67% and 73% and 71% and 66% and 70%
- Percentage of ADCC, 500 nM Compound B (WIL2-S; E:T 30:1): 76% and 79% and 77% and 72% and 75% and 81% and 82%
- Percentage of maximum ADCC, obinutuzumab (WIL2-S; [1]): 91% and 104%
- Percentage of maximum ADCC, obinutuzumab (WIL2-S; [2]): 103% and 104%
- Percentage of maximum ADCC, obinutuzumab (WIL2-S; [3]): 101% and 99%
- Percentage of maximum ADCC, rituximab (WIL2-S; [1]): 104% and 107%
- Percentage of maximum ADCC, rituximab (WIL2-S; [2]): 100% and 105%
- Percentage of maximum ADCC, rituximab (WIL2-S; [3]): 102% and 99%
- Percentage of maximum ADCC, obinutuzumab (WIL2-S; [4]): 89% and 106%
- Percentage of maximum ADCC, obinutuzumab (WIL2-S; [5]): 104% and 112%
- Percentage of maximum ADCC, obinutuzumab (WIL2-S; [6]): 107% and 100%
- Percentage of maximum ADCC, rituximab (WIL2-S; [4]): 103% and 111%
- Percentage of maximum ADCC, rituximab (WIL2-S; [5]): 105% and 111%
- Percentage of maximum ADCC, rituximab (WIL2-S; [6]): 105% and 104%
- Percentage of maximum ADCC, obinutuzumab (WIL2-S; [7]): 84% and 108%
- Percentage of maximum ADCC, obinutuzumab (WIL2-S; [8]): 105% and 110%
- Percentage of maximum ADCC, obinutuzumab (WIL2-S; [9]): 103% and 91%
- Percentage of maximum ADCC, rituximab (WIL2-S; [7]): 97% and 109%
- Percentage of maximum ADCC, rituximab (WIL2-S; [8]): 102% and 110%
- Percentage of maximum ADCC, rituximab (WIL2-S; [9]): 102% and 105%
- Percentage of maximum ADCC, obinutuzumab (WIL2-S; Compound B 7.81 nM, FcγRIIIa 158F/F): 89% and 107%
- Percentage of maximum ADCC, obinutuzumab (WIL2-S; Compound B 7.81 nM, FcγRIIIa 158F/V): 109% and 107%
- Percentage of maximum ADCC, obinutuzumab (WIL2-S; Compound B 7.81 nM, FcγRIIIa 158V/V): 94% and 90%
